Consider 13 compounds from patent US9499550B2 (BRISTOL-MYERS SQUIBB COMPANY, priority 2012, dated 2016).

Where two headings read alike, the source gives them in different places.

Experiment [1] has as its system HCV genotype 1b (Con1) replicon in HUH-7 cells. Put plainly: HCV replicon luciferase reporter assay, genotype 1b. Format: cell-based. To be noted: Hepatitis C virus, Huh-7, 72 h, HCV genotype 1b replicon luciferase assay, 3 days incubation, range class, read-out: LE_1b (EC50, range). An outline of the steps:
(§1)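 Replicon inhibition for both genotypes was measured as Renilla luciferase signal (EnduRen, 7.5 μM final, 2 h) after 3-day, 37° C exposure of replicon-bearing HUH-7 cells in 4% FCS DMEM, 0.5% DMSO. The 1b construct carries S1179I; the 1a H77 construct carries P1496L and S2204I. Twenty-point, 3-fold dilutions were fitted four-parametrically for EC50, and CC50 was taken from multiplexed Cell Titer-Blue.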
(A replicon is a self-replicating genome or part of one, used to study replication in cells.)

Experiment [2] deals with HCV genotype 1a (H77 strain) replicon in HUH-7 cells. Put plainly: HCV replicon luciferase reporter assay, genotype 1a. To be noted: Hepatitis C virus, Huh-7, 72 h, HCV genotype 1a replicon luciferase assay, 3 days incubation, range class, read-out: LE_1a (EC50, range). Format: cell-based. An outline of the steps: as §1

Take `CC[C@@H]1C[C@@H](C)CC/C=C\[C@@H]2C[C@@]2(C(=O)NS(=O)(=O)C2(C)CC2)NC(=O)[C@@H]2C[C@@H](Oc3nc(OC)cc4cc(OC)ccc34)CN2C(=O)[C@H]1NC(=O)OC(C)(C)C(F)(F)F` [Compound 1119, 1,1,1-trifluoro-2-methylpropan-2-yl((2R,6S,7R,9S,13aS,14aR,16aS,Z)-2-((3,6-dimethoxyisoquinolin-1-yl)oxy)-7-ethyl-9-methyl-14a-(((1-methylcyclopropyl)sulfonyl)carbamoyl)-5,16-dioxo-1,2,3,5,6,7,8,9,10,11,13a,14,14a,15,16,16a-hexadecahydrocyclopropa[e]pyrrolo[1,2-a][1,4]diazacyclopentadecin-6-yl)carbamate]: the EC50 in experiment [1] and in experiment [2] was less than 5.46 nM throughout.

In the case of `CC[C@@H]1C[C@H](C)CC/C=C\[C@@H]2C[C@@]2(C(=O)NS(=O)(=O)C2(C)CC2)NC(=O)[C@@H]2C[C@@H](Oc3nc(OC)cc4cc(OC)ccc34)CN2C(=O)[C@H]1NC(=O)OC(C)(C)C(F)(F)F` [Compound 1120, 1,1,1-trifluoro-2-methylpropan-2-yl((2R,6S,7R,9R,13aS,14aR,16aS,Z)-2-((3,6-dimethoxyisoquinolin-1-yl)oxy)-7-ethyl-9-methyl-14a-(((1-methylcyclopropyl)sulfonyl)carbamoyl)-5,16-dioxo-1,2,3,5,6,7,8,9,10,11,13a,14,14a,15,16,16a-hexadecahydrocyclopropa[e]pyrrolo[1,2-a][1,4]diazacyclopentadecin-6-yl)carbamate], the EC50 in experiment [1] and in experiment [2] was less than 5.46 nM each time.

As for `CC[C@@H]1C[C@@H](C)CC/C=C\[C@@H]2C[C@@]2(C(=O)NS(=O)(=O)C2(C)CC2)NC(=O)[C@@H]2C[C@@H](Oc3nc(OC)cc4cc(OC)ccc34)CN2C(=O)[C@H]1NC(=O)OC1(C(F)(F)F)COC1` [Compound 1121, 3-(trifluoromethyl)oxetan-3-yl((2R,6S,7R,9S,13aS,14aR,16aS,Z)-2-((3,6-dimethoxyisoquinolin-1-yl)oxy)-7-ethyl-9-methyl-14a-(((1-methylcyclopropyl)sulfonyl)carbamoyl)-5,16-dioxo-1,2,3,5,6,7,8,9,10,11,13a,14,14a,15,16,16a-hexadecahydrocyclopropa[e]pyrrolo[1,2-a][1,4]diazacyclopentadecin-6-yl)carbamate], the concentration giving a half-maximal response (EC50) in experiment [1] and in experiment [2] was less than 5.46 nM throughout.

With `CC[C@@H]1C[C@H](C)CC/C=C\[C@@H]2C[C@@]2(C(=O)NS(=O)(=O)C2(C)CC2)NC(=O)[C@@H]2C[C@@H](Oc3nc(OC)cc4cc(OC)ccc34)CN2C(=O)[C@H]1NC(=O)OC1(C(F)(F)F)COC1` [Compound 1122, 3-(trifluoromethyl)oxetan-3-yl ((2R,6S,7R,9R,13aS,14aR,16aS,Z)-2-((3,6-dimethoxyisoquinolin-1-yl)oxy)-7-ethyl-9-methyl-14a-(((1-methylcyclopropyl)sulfonyl)carbamoyl)-5,16-dioxo-1,2,3,5,6,7,8,9,10,11,13a,14,14a,15,16,16a-hexadecahydrocyclopropa[e]pyrrolo[1,2-a][1,4]diazacyclopentadecin-6-yl)carbamate], the EC50 in experiment [1] and in experiment [2] was less than 5.46 nM throughout.

In the case of `CC[C@@H]1C[C@@H](C)CC/C=C\[C@@H]2C[C@@]2(C(=O)NS(=O)(=O)C2(C)CC2)NC(=O)[C@@H]2C[C@@H](Oc3nc(OC)cc4cc(OC)ccc34)CN2C(=O)[C@H]1NC(=O)OC(C)(C)C(C)(F)F` [Compound 1123, 3,3-difluoro-2-methylbutan-2-yl((2R,6S,7R,9S,13aS,14aR,16aS,Z)-2-((3,6-dimethoxyisoquinolin-1-yl)oxy)-7-ethyl-9-methyl-14a-(((1-methylcyclopropyl)sulfonyl)carbamoyl)-5,16-dioxo-1,2,3,5,6,7,8,9,10,11,13a,14,14a,15,16,16a-hexadecahydrocyclopropa[e]pyrrolo[1,2-a][1,4]diazacyclopentadecin-6-yl)carbamate], the 50% effective concentration (EC50) in experiment [1] and in experiment [2] was less than 5.46 nM in each case.

For the compound `CC[C@@H]1C[C@H](C)CC/C=C\[C@@H]2C[C@@]2(C(=O)NS(=O)(=O)C2(C)CC2)NC(=O)[C@@H]2C[C@@H](Oc3nc(OC)cc4cc(OC)ccc34)CN2C(=O)[C@H]1NC(=O)OC(C)(C)C(C)(F)F` [Compound 1124, 3,3-difluoro-2-methylbutan-2-yl((2R,6S,7R,9R,13aS,14aR,16aS,Z)-2-((3,6-dimethoxyisoquinolin-1-yl)oxy)-7-ethyl-9-methyl-14a-(((1-methylcyclopropyl)sulfonyl)carbamoyl)-5,16-dioxo-1,2,3,5,6,7,8,9,10,11,13a,14,14a,15,16,16a-hexadecahydrocyclopropa[e]pyrrolo[1,2-a][1,4]diazacyclopentadecin-6-yl)carbamate], the EC50 in experiment [1] and in experiment [2] was less than 5.46 nM each time.

Turning to `COc1ccc2c(O[C@@H]3C[C@H]4C(=O)N[C@]5(C(=O)NS(=O)(=O)C6(CF)CC6)C[C@H]5/C=C\CC[C@@H](C)C[C@@H](C)[C@H](NC(=O)OC(C)(C)C)C(=O)N4C3)nc(OC)cc2c1` [Compound 1125, tert-butyl ((2R,6S,7R,9R,13aS,14aR,16aS,Z)-2-((3,6-dimethoxyisoquinolin-1-yl)oxy)-14a-(((1-(fluoromethyl)cyclopropyl)sulfonyl)carbamoyl)-7,9-dimethyl-5,16-dioxo-1,2,3,5,6,7,8,9,10,11,13a,14,14a,15,16,16a-hexadecahydrocyclopropa[e]pyrrolo[1,2-a][1,4]diazacyclopentadecin-6-yl)carbamate], the EC50 in experiment [1] and in experiment [2] was less than 5.46 nM each time.

Take `COc1ccc2c(O[C@@H]3C[C@H]4C(=O)N[C@]5(C(=O)NS(=O)(=O)C6(CF)CC6)C[C@H]5/C=C\CC[C@H](C)C[C@@H](C)[C@H](NC(=O)OC(C)(C)C(F)(F)F)C(=O)N4C3)nc(OC)cc2c1` [Compound 1126, 1,1,1-trifluoro-2-methylpropan-2-yl((2R,6S,7R,9S,13aS,14aR,16aS,Z)-2-((3,6-dimethoxyisoquinolin-1-yl)oxy)-14a-(((1-(fluoromethyl)cyclopropyl)sulfonyl)carbamoyl)-7,9-dimethyl-5,16-dioxo-1,2,3,5,6,7,8,9,10,11,13a,14,14a,15,16,16a-hexadecahydrocyclopropa[e]pyrrolo[1,2-a][1,4]diazacyclopentadecin-6-yl)carbamate]: the EC50 was less than 5.46 nM in experiment [1] and 4.82 to 103 nM in experiment [2].

With `COc1ccc2c(O[C@@H]3C[C@H]4C(=O)N[C@]5(C(=O)NS(=O)(=O)C6(CF)CC6)C[C@H]5/C=C\CC[C@@H](C)C[C@@H](C)[C@H](NC(=O)OC(C)(C)C(F)(F)F)C(=O)N4C3)nc(OC)cc2c1` [Compound 1127, 1,1,1-trifluoro-2-methylpropan-2-yl((2R,6S,7R,9R,13aS,14aR,16aS,Z)-2-((3,6-dimethoxyisoquinolin-1-yl)oxy)-14a-(((1-(fluoromethyl)cyclopropyl)sulfonyl)carbamoyl)-7,9-dimethyl-5,16-dioxo-1,2,3,5,6,7,8,9,10,11,13a,14,14a,15,16,16a-hexadecahydrocyclopropa[e]pyrrolo[1,2-a][1,4]diazacyclopentadecin-6-yl)carbamate], the EC50 in experiment [1] and in experiment [2] was less than 5.46 nM each time.

With `COc1ccc2c(O[C@@H]3C[C@H]4C(=O)N[C@]5(C(=O)NS(=O)(=O)C6(CF)CC6)C[C@H]5/C=C\CC[C@@H](C)C[C@@H](C)[C@H](NC(=O)OC(C)(C)C(C)(F)F)C(=O)N4C3)nc(OC)cc2c1` [Compound 1128], the concentration for a half-maximal effect (EC50) in experiment [1] (GETYPE1B) and in experiment [2] (GETYPE1A) was less than 5.46 nM each time.

As to `COc1ccc2c(O[C@@H]3C[C@H]4C(=O)N[C@]5(C(=O)NS(=O)(=O)C6(CF)CC6)C[C@H]5/C=C\CC[C@@H](C)C[C@@H](C)[C@H](NC(=O)OC5COC5)C(=O)N4C3)nc(OC)cc2c1` [Compound 1129, oxetan-3-yl ((2R,6S,7R,9R,13aS,14aR,16aS,Z)-2-((3,6-dimethoxyisoquinolin-1-yl)oxy)-14a-(((1-(fluoromethyl)cyclopropyl)sulfonyl)carbamoyl)-7,9-dimethyl-5,16-dioxo-1,2,3,5,6,7,8,9,10,11,13a,14,14a,15,16,16a-hexadecahydrocyclopropa[e]pyrrolo[1,2-a][1,4]diazacyclopentadecin-6-yl)carbamate], the EC50 in experiment [1] and in experiment [2] was less than 5.46 nM throughout.

With `COc1ccc2c(O[C@@H]3C[C@H]4C(=O)N[C@]5(C(=O)NS(=O)(=O)C6(C)CC6)C[C@H]5/C=C\CC[C@H](C)C[C@@H](C)[C@H](NC(=O)OC(C)(C)C)C(=O)N4C3)nc(OC)cc2c1` [Compound 1130, tert-butyl ((2R,6S,7R,9S,13aS,14aR,16aS,Z)-2-((3,6-dimethoxyisoquinolin-1-yl)oxy)-7,9-dimethyl-14a-(((1-methylcyclopropyl)sulfonyl)carbamoyl)-5,16-dioxo-1,2,3,5,6,7,8,9,10,11,13a,14,14a,15,16,16a-hexadecahydrocyclopropa[e]pyrrolo[1,2-a][1,4]diazacyclopentadecin-6-yl)carbamate], the EC50 in experiment [1] and in experiment [2] was less than 5.46 nM in each case.

Consider `COc1ccc2c(O[C@@H]3C[C@H]4C(=O)N[C@]5(C(=O)NS(=O)(=O)C6(C)CC6)C[C@H]5/C=C\CC[C@@H](C)C[C@@H](C)[C@H](NC(=O)OC(C)(C)C)C(=O)N4C3)nc(OC)cc2c1` [Compound 1131, tert-butyl ((2R,6S,7R,9R,13aS,14aR,16aS,Z)-2-((3,6-dimethoxyisoquinolin-1-yl)oxy)-7,9-dimethyl-14a-(((1-methylcyclopropyl)sulfonyl)carbamoyl)-5,16-dioxo-1,2,3,5,6,7,8,9,10,11,13a,14,14a,15,16,16a-hexadecahydrocyclopropa[e]pyrrolo[1,2-a][1,4]diazacyclopentadecin-6-yl)carbamate], for which the 50% effective concentration (EC50) in experiment [1] and in experiment [2] was less than 5.46 nM in each case.

For orientation: EC50 means the concentration giving half of the maximal effect.
